Consider 90 molecules from a melting point compilation (Tetko et al.; mined from patent text by program, amines drawn as free bases though some values may be those of a salt).

For `CCOC(=O)C=C1CSC2=C1SCC=NC2`, the melting point was in the range of 86 to 87 °C.

Regarding `CN(CCN1CCOCC1)c1noc2cc(OC(=O)NCc3ccccc3)ccc12`, the melting point lay within 106 to 107 °C. The figure for `CC(C)(C)OC(=O)N1CCc2c(n(CCCc3ccccc3)c3cc(Cl)c(Cl)cc23)CC1` is 119 to 124 °C.

`CC(C)(C)N1CC(c2cc(Cl)c(N)c(Cl)c2)OC1=O` (stereo not given) displayed a melting point of 97 to 103 °C.

In turn, `CC(C)Sc1nc(-c2ccc(F)cc2)c(-c2ccncc2)[nH]1` had a melting point of 263 to 264 °C. The figure for `CCOC(=O)c1cn(-c2ccc3ncccc3c2)cn1` is 90 to 94 °C; for `CCc1noc(-c2cn(-c3cccc(Oc4ccc([N+](=O)[O-])cc4)c3)cn2)n1` it is 145 to 146 °C; for `COCN1C(C)=C(C(=O)OCOC(=O)C(C)(C)C)C(c2ccccc2C(F)(F)F)C(C(=O)OCOC(=O)C(C)(C)C)=C1C` it is 96 to 97 °C. The result for `CCCCCCCCCCCCCCC(F)CC(NC(C)=O)(C(=O)OCC)C(=O)OCC` (stereo not given) reads 71 to 73 °C; that for `CC(=O)OCC1OC(OC(C)=O)C(N=[N+]=[N-])C([N+](=O)[O-])C1OC(C)=O` (stereo not given), 118 to 120 °C. The result for `O=C(c1ccccc1)c1ccc(-c2ccc(-c3ccc(-c4ccc(C(=O)c5ccccc5)s4)s3)s2)s1` reads 307 to 310 °C. The molecule `O=C(O)CNC(=O)CN1CCCC1=O` gave a melting point of 149 to 150 °C. The figure for `COc1ccc(-c2cccn2-c2ccc(S(N)(=O)=O)cc2)cc1` is 183 to 184 °C; for `O=C(NCCOc1ccc(CC(Oc2ccccc2)C(=O)O)cc1Br)c1ccc(-c2ccccn2)cc1` (stereo not given) it is 83 to 84 °C.

Regarding `CN(C)CC1CCc2cc(OCc3ccc(NC(=O)Cc4ccccc4)cc3)ccc2C1` (stereo not given), the melting point was in the range of 130 to 135 °C.

Molecule `CSc1c(S(=O)(=O)NC(C)(C)C)ccn1C` showed a melting point of 116 to 119 °C. For the molecule `O=S(=O)(Cl)c1cc2c(Br)cccc2o1`, the melting point was determined as 87.2 °C. The figure for `CNC(=Nc1cccc(CN(C)C)n1)NC#N` is 180 to 181 °C; for `CC(C)(C)C(O)c1ccc(Oc2ccccc2)cc1` (stereo not given) it is 79 to 80 °C.

The molecule `CC(O)Cc1ccc2oc(=O)[nH]c2c1` (stereo not given) had a melting point of 133 to 134 °C. `CC(=O)c1ccc2oc3nc(N)c(C(=O)O)cc3c(=O)c2c1`: the melting point is > 300 °C.

As for `CCOC(=O)c1cnn(-c2cc(C)cc(C)c2)c1C#N`, the melting point was in the range of 83.5 to 84.5 °C. The result for `CCCCCCCCCCN1C(=O)C2CC(c3ccc(N)cc3)(C2)C1=O` reads 81.5 to 82.5 °C. Take `O=C1N(Cc2cc(=O)[nH]c(=O)[nH]2)c2ccccc2C12COc1cc3c(cc12)OCO3` (stereo not given): the melting point was > 300 °C.

With `COc1cc(Nc2c(C#N)cnc3cc(-c4ccc(CNCCS(=O)(=O)c5ccccc5)o4)ccc23)c(Cl)cc1Cl`, the melting point lay within 123 to 128 °C. The result for `CCC1=NNC(C)=C(C(=O)OCc2ccccc2)C1c1cccc([N+](=O)[O-])c1` (stereo not given) reads 154 °C; that for `Cn1nc(-c2ccc(F)cc2)c(-c2ccncc2)c1CCCc1ccc(N)cc1`, 80.5 to 81.1 °C. The figure for `Cc1nnc(SCC(=O)C23CC4CC(CC(C4)C2)C3)s1` is 102 to 105 °C; for `CC(=O)C(CCCCCCc1ccc(O)cc1)C(C)=O` it is 68 to 69 °C; for `COc1cc(-n2c(C#N)c3n(c2=O)CCCCC3)c(F)cc1Cl` it is 144 to 146 °C. For the molecule `CCOc1ccc(-c2nc(OC)ccc2N2CCC(=O)N(c3ccc(OC)cc3)CC2)cc1C`, the melting point is 136 to 138 °C. The figure for `CC(=O)Oc1ccc2c(c1)CCCO2` is 76 to 77 °C; for `CN1CCN(c2ccc(-c3[nH]nc4c3C(=O)c3c(NC(=O)NN(C)C)cccc3-4)cc2)CC1` it is 192 °C. The result for `N#CCCCC1Sc2ccccc2NC1=O` (stereo not given) reads 107 to 108 °C. The figure for `O=C1N[C@H](Cc2cccc(OC(F)(F)C(F)F)c2)[C@H](c2ccc(Oc3ccccc3)cc2)O1` (racemic) is 90 to 91 °C. `COc1c(F)cc(CCCn2nnnc2S)cc1F` yielded a melting point of 64 to 65 °C. With `CCCc1cccc2[nH]c(C(=O)OCC)cc(=O)c12`, the melting point fell in the range of 153 to 154 °C. The figure for `CCCOc1nsc(NC(=O)NC)c1C(N)=O` is 195 to 198 °C. Take `C=C1C(=O)OC2C1CCC(CO)=CCCC1(C)OC21` (stereo not given): the melting point lay in the range of 172 to 176 °C.

As to `CCCCCCCCCCOc1cc(O)cc(OCCCCCCCCCC)c1`, the melting point is 48 to 50 °C.

`O=c1[nH]c2cc(Cl)cc([N+](=O)[O-])c2[nH]c1=O` came in with a melting point of 315 to 317 °C. Regarding `C[C@H](Nc1nc(N=[N+]=[N-])nc(Cl)c1-c1c(F)cc(F)cc1F)C(F)(F)F`, the melting point is 152 to 154 °C. The result for `Cc1ccc(NS(=O)(=O)c2cc(C)c3cc(C(C)C)ccc(C)c2-3)cc1` reads 146 to 148 °C. The result for `CCOc1nn(Cc2ccc(OCc3nc4ccccc4n3C)cc2)cc1CCC(=O)O` reads 177 to 178 °C. The figure for `O=P1(c2ccc(F)cc2)c2ccccc2CN1c1ccc(Br)cc1` (stereo not given) is 201 to 205 °C; for `CCCC1(CCC)CC1(CN)C(=O)O` (stereo not given) it is 255 to 257 °C; for `CC(O)(C(=O)Nc1ccc(C(=O)c2ccccc2)cc1F)C(F)(F)F` (stereo not given) it is 138 to 139 °C. As to `COc1cc(Nc2nccc(-c3ccc(N4CCN(CCO)CC4)nc3)n2)cc(OC)c1OC`, the melting point lay in the range of 156 to 157 °C.

With `Cc1cc(CC2(Cc3ccncc3)c3cccnc3-c3ncccc32)cc(C)n1`, the melting point is > 240 °C. For `C#CCOc1ccc(C2c3[nH]c4ccccc4c3CC(C(=O)OC)N2C(=O)CCl)cc1` (stereo not given), the melting point was 218 °C.

For `CC1(OCc2ccccc2Cl)COC(CCl)OC1` (stereo not given), the melting point fell in the range of 53 to 54 °C.

For `CCCc1c(OCCCCC2CC(=O)c3ccc(OCC(=O)O)c(CCC)c3O2)ccc(C(C)=O)c1O` (stereo not given), the melting point was 164 to 167 °C. Turning to `CC(=O)N1CCC(Oc2cccc(C(F)(F)F)c2)(c2ccccc2)CC1`, the melting point fell in the range of 100 to 103 °C.

`CCCCOc1cccc(C(=O)C=Cc2ccc(OC)cc2OC)c1` showed a melting point of 80.4 to 81.3 °C. The result for `CC(=O)c1nc(-c2ccc(Cl)nc2)[nH]c1C` reads 239 to 240 °C; that for `COC(=O)C1CCc2sccc2C1=O` (stereo not given), 85 to 86 °C. `CCOCC1OC(n2cnc3c(NCc4cccc(I)c4)ncnc32)C(O)C1O` (stereo not given) had a melting point of 164 to 166 °C. The result for `CC(C)(C)c1cc(C(C)(C)C)c(=O)c2nc3ccccc3sc1-2` reads 137 to 141 °C.

With `CS(=O)(=O)N(Cc1cccnc1)c1cccc([N+](=O)[O-])c1`, the melting point was 131 to 133 °C.

In turn, `CC(C)Nc1c(-c2cc(F)cc(F)c2F)c(Cl)nc2ncnn12` gave a melting point of 151 °C. As to `CN(C)C=NS(=O)(=O)c1cccc(Br)c1`, the melting point was 122 °C. The figure for `COc1ccc(CCNC(C)=O)cc1OC` is 99 to 100 °C; for `O=C(N1CCOCC1)C(c1ccccc1)(c1ccccc1)c1ncc[nH]1` it is 113 °C. The result for `COC(=O)CCCC(=O)c1ccco1` reads 42.5 °C; that for `COc1cc(I)ccc1C(=O)O`, 144 to 146 °C. The result for `CCN(CC(O)CCl)c1ccc2c(c1)C(=O)N(C)C2=O` (stereo not given) reads 123 °C; that for `CCOC(=O)CC(C)(O)c1ccc(-c2ccccc2)cc1` (stereo not given), 58 to 60 °C; that for `COC(=O)C1Cc2c(cccc2-c2ccccc2)CN1` (stereo not given), 149 to 150 °C. In the case of `CCOC(=O)C1(NC(=O)OCc2ccccc2)CC(=O)NC1=O` (stereo not given), the melting point fell in the range of 105 to 106 °C. The figure for `Cc1cc(C2(O)C(=O)N(Cc3ccccc3)c3ccccc32)cc(C)c1O[Si](C)(C)C(C)(C)C` (stereo not given) is 147 °C. The figure for `OC1CSC(Oc2cccnc2)C(O)C1O` (stereo not given) is 216 °C. With `COc1cc(Nc2c(C#N)cnc3cc4cc(OC)c(OCCN5CCN(C)CC5)cc4cc23)c(Cl)cc1F`, the melting point fell in the range of 170 to 173 °C.

In the case of `CCOC(=O)c1cccc(-c2cc3c(O)ncnc3[nH]2)c1`, the melting point is > 250 °C. In turn, `CCc1cc(=O)c2c([nH]1)CCCC2` came in with a melting point of 133 to 137 °C. `C=C(OC(=O)c1ccc(C(C)(C)C)cc1)c1ccc(OC)cc1` had a melting point of 87 to 89 °C.

`CCCCOc1c2c(nc3c1cnn3CC)C(O)c1ccccc1CC2` (stereo not given) returned a melting point of 163 to 165 °C. The figure for `Cc1sc(N2CCOCC2)nc1CCOc1ccc(C[C@H](Nc2ccccc2C(=O)c2ccccc2)C(=O)O)cc1` is 148 to 151 °C; for `COc1ccc(C(=O)CC2CCCCCCC2=O)cc1` (stereo not given) it is 54 to 56 °C; for `CCc1ccccc1NC(=O)c1ccccc1SSc1ccccc1C(=O)Nc1ccccc1CC` it is 255 to 256 °C. Molecule `Cc1cccc(-c2nc(N)sc2-c2ccnc(F)c2)c1` returned a melting point of 214 to 218 °C. The figure for `COc1ccc(CCNC(C)=O)cc1OC1CCCC1` is 87 to 88 °C; for `[N-]=[N+]=NC(c1ccccc1)C(O)c1ccccc1` (stereo not given) it is 59 to 60 °C; for `Cc1ccc(Nc2nc3ccccc3c3[nH]c(C4CCCC4)nc23)cc1` it is 125 to 126 °C.

For `C#CC(Cn1cnnn1)n1nnc2cc3c(=O)n(C4CC4)nnc3cc2c1=O` (stereo not given), the melting point was > 195 °C.

In turn, `NC(=NO)c1cccc(-c2nc3sccn3c2-c2ccnc(NC3CCCN(S(=O)(=O)c4ccc(Cl)cc4)C3)n2)c1` (stereo not given) displayed a melting point of 272 to 273 °C. `Cc1ccc(S(=O)(=O)OCCc2nc(-c3ccc(Br)cc3)oc2C)cc1` yielded a melting point of 136 °C. The result for `CC(=O)NC[C@H]1CN(c2ccc(N3C[C@H]4CN(C(=O)COCc5ccccc5)C[C@H]4C3)c(F)c2)C(=O)O1` reads 138 to 140 °C; that for `CCc1nc2c(N)nc3ccccc3c2n1CC1(O)CCOC1` (stereo not given), 245 to 247 °C. The result for `CN1c2c(Cl)cc(CC(=O)O)cc2CCC1c1ccccc1` (stereo not given) reads 111 to 112 °C. The result for `O=C(O)/C=C/c1ccc(OCc2cccnc2)cc1` reads 228 to 230 °C.

In general, melting point refers to the temperature, or range, at which the solid turns liquid.
